pIC50: −log10 of the molar value. Activity calls are given as the source filed them. The calls are words filed in the database; no cut-off is given here.
Assays:
[1] = target: T1, Transcriptional enhancer factor TEF-5 (Homo sapiens, UniProt Q99594); assay: Inhibition of TEAD3 (unknown origin) transfected in human HEK293 cells co-transfected with renilla plasmid assessed as inhibition of transcriptional activity incubated for 24 hrs by dual Glo-luciferase reporter assay; assay type: cell-based
[2] = target: T2, Transcriptional enhancer factor TEF-1 (Homo sapiens, UniProt P28347); assay: Displacement of FAM- labeled YAP1 peptide (60 to 99 residues) from human TEAD1 (209 to 426 residues) expressed in Escherichia coli BL21 (DE3) cells incubated for 24 hrs by fluorescence polarization-based competitive binding assay; details: for pIC50: read-out: IC50
T2 sequence (P28347 whole entry, the tested form may be a part): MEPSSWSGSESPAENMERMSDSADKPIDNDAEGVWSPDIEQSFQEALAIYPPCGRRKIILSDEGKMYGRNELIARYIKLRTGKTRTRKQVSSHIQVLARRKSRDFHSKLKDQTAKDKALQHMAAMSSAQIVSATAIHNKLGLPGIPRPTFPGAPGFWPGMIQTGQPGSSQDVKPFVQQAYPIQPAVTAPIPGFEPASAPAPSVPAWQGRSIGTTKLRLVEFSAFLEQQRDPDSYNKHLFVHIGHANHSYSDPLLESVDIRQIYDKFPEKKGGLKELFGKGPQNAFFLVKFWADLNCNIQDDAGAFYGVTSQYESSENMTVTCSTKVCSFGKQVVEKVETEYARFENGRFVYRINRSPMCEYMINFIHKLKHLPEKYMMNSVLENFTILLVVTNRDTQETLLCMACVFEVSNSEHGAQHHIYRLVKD

[3] = target: T3, Transcriptional enhancer factor TEF-3 (Homo sapiens, UniProt Q15561); assay: Inhibition of TEAD4 (unknown origin) transfected in human HEK293 cells co-transfected with renilla plasmid assessed as maximum inhibition of transcriptional activity at 0.01 to 100 uM incubated for 24 hrs by dual Glo-luciferase reporter assay relative to control; assay type: cell-based; details: dose 0.01-100 µM
T3 sequence (Q15561 whole entry, the tested form may be a part): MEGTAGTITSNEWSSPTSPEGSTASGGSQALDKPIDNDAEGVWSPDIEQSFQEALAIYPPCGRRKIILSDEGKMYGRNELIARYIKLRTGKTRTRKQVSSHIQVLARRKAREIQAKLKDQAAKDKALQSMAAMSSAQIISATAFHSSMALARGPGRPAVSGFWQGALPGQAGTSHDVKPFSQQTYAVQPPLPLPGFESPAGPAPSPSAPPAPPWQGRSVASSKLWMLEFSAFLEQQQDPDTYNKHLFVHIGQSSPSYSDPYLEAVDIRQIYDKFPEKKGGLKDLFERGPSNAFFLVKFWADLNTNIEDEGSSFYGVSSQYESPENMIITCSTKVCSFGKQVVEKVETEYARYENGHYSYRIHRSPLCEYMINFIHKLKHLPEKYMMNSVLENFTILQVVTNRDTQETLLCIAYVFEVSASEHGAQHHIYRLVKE

[4] = target: T3, Transcriptional enhancer factor TEF-3; assay: Displacement of FAM- labeled YAP1 peptide (60 to 99 residues) from human TEAD4 (217 to 434 residues) expressed in Escherichia coli BL21 (DE3) cells incubated for 24 hrs by fluorescence polarization-based competitive binding assay; details: for pIC50: read-out: IC50
[5] = system: Transcriptional enhancer factor TEF-3 (Homo sapiens), Q15561 [C367S]; assay: Displacement of FAM- labeled YAP1 peptide (60 to 99 residues) from human TEAD4 (217 to 434 residues) C367S mutant expressed in Escherichia coli BL21 (DE3) cells at 0.2 to 100 uM incubated for 24 hrs by fluorescence polarization-based competitive binding assay; details: dose 0.2-100 µM
Transcriptional enhancer factor TEF-3 (Homo sapiens), Q15561 [C367S], sequence (Q15561 whole entry C367S, the tested form may be a part): as the sequence (Q15561 whole entry, the tested form may be a part) above, with C367S counted along it

[6] = target: T4, Transcriptional enhancer factor TEF-4 (Homo sapiens, UniProt Q15562); assay: Inhibition of TEAD2 (unknown origin) transfected in human HEK293 cells co-transfected with renilla plasmid assessed as maximum inhibition of transcriptional activity at 0.1 to 10 uM incubated for 24 hrs by dual Glo-luciferase reporter assay relative to control; assay type: cell-based; details: dose 0.1-10 µM
T4 sequence (Q15562 whole entry): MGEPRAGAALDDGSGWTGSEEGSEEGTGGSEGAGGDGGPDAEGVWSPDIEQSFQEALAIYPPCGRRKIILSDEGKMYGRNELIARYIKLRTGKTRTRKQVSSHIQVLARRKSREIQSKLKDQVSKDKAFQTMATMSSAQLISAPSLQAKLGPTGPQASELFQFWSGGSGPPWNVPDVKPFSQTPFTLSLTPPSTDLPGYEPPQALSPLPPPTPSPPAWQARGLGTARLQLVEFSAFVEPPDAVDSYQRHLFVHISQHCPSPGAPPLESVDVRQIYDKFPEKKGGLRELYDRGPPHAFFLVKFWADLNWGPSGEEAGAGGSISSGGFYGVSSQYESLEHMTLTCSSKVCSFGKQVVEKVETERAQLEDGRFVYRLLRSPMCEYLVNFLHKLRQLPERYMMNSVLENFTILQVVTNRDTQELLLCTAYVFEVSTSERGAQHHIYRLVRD

[7] = Inhibition of TEAD in human MDA-MB-468 cells assessed as inhibition of CTGF transcriptional level incubated for 24 hrs by qRT-PCR assay; assay type: cell-based; details: Homo sapiens, MDA-MB-468, 24 h; read-out: IC50
[8] = target: T4, Transcriptional enhancer factor TEF-4; assay: Displacement of FAM- labeled YAP1 peptide (60 to 99 residues) from human TEAD2 (217 to 447 residues) expressed in Escherichia coli BL21 (DE3) cells assessed as maximum inhibition at 0.2 to 100 uM incubated for 24 hrs by fluorescence polarization-based competitive binding assay relative to control; details: dose 0.2-100 µM
[9] = target: T4, Transcriptional enhancer factor TEF-4; assay: Inhibition of TEAD2 (unknown origin) transfected in human HEK293 cells co-transfected with renilla plasmid assessed as inhibition of transcriptional activity incubated for 24 hrs by dual Glo-luciferase reporter assay; assay type: cell-based
[10] = target: T3, Transcriptional enhancer factor TEF-3; assay: Inhibition of TEAD4 (unknown origin) transfected in human HEK293 cells co-transfected with renilla plasmid assessed as inhibition of transcriptional activity incubated for 24 hrs by dual Glo-luciferase reporter assay; assay type: cell-based; details: for pIC50: read-out: IC50
[11] = target: T2, Transcriptional enhancer factor TEF-1; assay: Inhibition of TEAD1 (unknown origin) transfected in human HEK293 cells co-transfected with renilla plasmid assessed as inhibition of transcriptional activity incubated for 24 hrs by dual Glo-luciferase reporter assay; assay type: cell-based
[12] = target: T1, Transcriptional enhancer factor TEF-5; assay: Displacement of FAM- labeled YAP1 peptide (60 to 99 residues) from human TEAD3 (210 to 427 residues) expressed in Escherichia coli BL21 (DE3) cells incubated for 24 hrs by fluorescence polarization-based competitive binding assay
MDA-MB-468 = assay: Inhibition of TEAD in human MDA-MB-468 cells assessed as maximal inhibition of CTGF transcriptional level at 0.01 to 100 uM incubated for 24 hrs by qRT-PCR assay relative to control; assay type: cell-based; details: dose 0.01-100 µM
[13] = target: T2, Transcriptional enhancer factor TEF-1; assay: Inhibition of TEAD1 (unknown origin) transfected in human HEK293 cells co-transfected with renilla plasmid assessed as maximum inhibition of transcriptional activity at 0.1 to 10 uM incubated for 24 hrs by dual Glo-luciferase reporter assay relative to control; assay type: cell-based; details: dose 0.1-10 µM
[14] = target: YAP1-TEAD4 (Homo sapiens) (UniProt P46937+Q15561); assay: Inhibition of NanoLuc-tagged TEAD4 (unknown origin)-Halo-Tagged YAP1 (unknown origin) protein-protein interaction transfected in HEK293 cells using furimazine as substrate at 10 uM incubated for 2 to 24 hrs by NanoBRET binding assay; assay type: cell-based; details: time 2-24 hrs
[15] = target: T4, Transcriptional enhancer factor TEF-4; assay: Displacement of FAM- labeled YAP1 peptide (60 to 99 residues) from human TEAD2 (217 to 447 residues) expressed in Escherichia coli BL21 (DE3) cells incubated for 24 hrs by fluorescence polarization-based competitive binding assay
[16] = target: T3, Transcriptional enhancer factor TEF-3; assay: Inhibition of TEAD4 (unknown origin) transfected in human HEK293 cells co-transfected with renilla plasmid assessed as maximum inhibition of transcriptional activity at 0.1 to 10 uM incubated for 24 hrs by dual Glo-luciferase reporter assay relative to control; assay type: cell-based; details: dose 0.1-10 µM
[17] = target: T4, Transcriptional enhancer factor TEF-4; assay: Inhibition of TEAD2 (unknown origin) transfected in human HEK293 cells co-transfected with renilla plasmid assessed as maximum inhibition of transcriptional activity at 10 uM incubated for 24 hrs by dual Glo-luciferase reporter assay relative to control; assay type: cell-based
[18] = target: T2, Transcriptional enhancer factor TEF-1; assay: Inhibition of TEAD1 (unknown origin) transfected in human HEK293 cells co-transfected with renilla plasmid assessed as maximum inhibition of transcriptional activity at 10 uM incubated for 24 hrs by dual Glo-luciferase reporter assay relative to control; assay type: cell-based

T1 sequence (Q99594 whole entry, the tested form may be a part): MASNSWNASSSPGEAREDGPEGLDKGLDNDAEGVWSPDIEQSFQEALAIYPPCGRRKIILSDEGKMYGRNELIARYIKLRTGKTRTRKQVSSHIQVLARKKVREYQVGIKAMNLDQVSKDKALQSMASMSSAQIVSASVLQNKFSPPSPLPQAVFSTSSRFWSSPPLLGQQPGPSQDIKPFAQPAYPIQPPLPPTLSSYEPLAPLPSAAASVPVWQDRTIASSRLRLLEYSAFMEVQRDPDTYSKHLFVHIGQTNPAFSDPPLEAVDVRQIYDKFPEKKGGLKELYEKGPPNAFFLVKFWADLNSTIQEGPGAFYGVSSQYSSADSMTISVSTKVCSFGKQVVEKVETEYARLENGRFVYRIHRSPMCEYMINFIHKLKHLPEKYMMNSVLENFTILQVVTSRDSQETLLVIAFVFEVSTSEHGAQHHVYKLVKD

N#CN1CC2CCCC(Nc3cccc(C(F)(F)F)c3)C2C1 (stereo not given) showed a pIC50 [1] of 5.92, a pIC50 [2] of 5.80 and an Imax [3] of 87.3%. For the same compound, the pIC50 [4] was 4.29, the inhibition [5] was “inactive” and the Imax [6] was 28.2%. For the same compound, the pIC50 [7] was 5.96, the Imax [8] was 45% and the pIC50 [9] was 5.66. The pIC50 [10] was 6.40, the pIC50 [11] was 5.80 and the IC50 [12] was “Not Active”. For the same compound, the Imax (MDA-MB-468) was 28.6%, the Imax [13] was 40% and the inhibition [14] was “inactive”. For the same compound, the pIC50 [15] was 4.56 and the Imax [16] was 41.3%.
For N#CN1Cc2ccc(F)c(Nc3cccc(C(F)(F)F)c3)c2C1, the pIC50 [2] was 6.70, the inhibition [17] was “Active” and the Imax [3] was 35.6%. The pIC50 [4] was 6.22, the inhibition [5] was “inactive” and the pIC50 [7] was 6.52. For the same compound, the Imax [8] was 37%, the inhibition [18] was “Active” and the pIC50 [10] was 6.15. The IC50 [12] was “Not Active”, the Imax (MDA-MB-468) was 50.3% and the pIC50 [15] was 5.62.
With N#CN1CC2CCCC(Nc3ccccc3C(F)(F)F)C2C1 (stereo not given) the IC50 [2] was “Not Active”, the IC50 [4] was “Not Active” and the pIC50 [7] was 5.66. For the same compound, the Imax [8] was 20%, the IC50 ([10]; hek293) was “Not Active” and the IC50 [12] was “Not Active”. It also gave an Imax (MDA-MB-468) of 41.1% and a pIC50 [15] of 5.12.
For N#CN1Cc2cccc(Nc3ccc(C(F)(F)F)cc3)c2C1, the pIC50 [2] was 6.70, the IC50 [4] was “Not Active” and the pIC50 [7] was 5.82. For the same compound, the Imax [8] was 33%, the pIC50 [10] was 5.68 and the IC50 [12] was “Not Active”. The Imax (MDA-MB-468) was 59.6% and the pIC50 [15] was 6.10.
